Experimental data as given in patent publication US20230277654A1, “STABLE FORMULATIONS OF CYTOMEGALOVIRUS” (priority 2017, published 2023).

Legend:
FKBP = settings: Clackson et al., 1998; cited from earlier work
rdCMV = test: Shield-1 dependence of rdCMV replication; type: cell-based, cytomegalovirus; settings: rdCMV in ARPE-19 cells and other human primary cells
Description: Conversely, rdCMV should not replicate substantially in the absence of Shield-1. The quality of a replication defective mechanism is judged by how stringent the control is under the conditions not permissive for viral replication, i.e., the infectious titers of progeny virions under these conditions. The rdCMV described herein cannot replicate substantially (either in cell culture or within a patient) without Shield-1 present. Its replication in ARPE-19 cells and other types of human primary cells is conditional, and a molar concentration of Shield-1 greater than 0.1 μM, preferable at least 2 μM, in the culture medium is required to sustain viral replication.

CC[C@H](C(=O)N1CCCC[C@H]1C(=O)O[C@H](CCc1ccc(OC)c(OC)c1)c1cccc(OCCN2CCOCC2)c1)c1cc(OC)c(OC)c(OC)c1 [Shield-1]
binding to the F36V derivative compared to wild-type FKBP (tighter) (FKBP): about 1,000 fold | molar concentration in the culture medium required to sustain viral replication (rdCMV): greater than 0.1 μM
